Results as given in patent US11001590B2, “Pyrazolopyrimidine derivatives” (BAYER ANIMAL HEALTH GMBH, priority 2016, dated 2021).

Assay: log P by HPLC on reversed phase columns (Method L0; [a] acidic, [b] neutral range)
Conditions: for logP (Method L0) [a]: HPLC on reversed phase columns, Method L0, [a] acidic range; for log P: HPLC on reversed phase columns (Method L0)
[1] = last column of Table 1, column head not shown

| SMILES | logP (Method L0) [a] | other results |
| --- | --- | --- |
| Cc1c(C(=O)N[C@H]2CCc3ccccc32)cnc2c(-c3cc(Cl)cc(Cl)c3)c(Cl)nn12 [Example 66] | 5.47 |  |
| O=C(N[C@H]1CCc2ccccc21)c1cnc2c(-c3cc(Cl)cc(Cl)c3)c(Cl)nn2c1 [Example 67] | 5.39 |  |
| Cc1c(C(=O)N[C@H]2CCCc3ccccc32)cnc2c(-c3cc(Cl)cc(Cl)c3)c(Cl)nn12 [Example 68] | 5.78 |  |
| Cc1c(C(=O)N[C@H]2CCCc3ccccc32)cnc2c(-c3cccc(C(F)(F)F)c3)c(Cl)nn12 [Example 69] | 5.03 |  |
| Cc1c(C(=O)N[C@H]2CCc3ccccc32)cnc2c(-c3cccc(C(F)(F)F)c3)c(Cl)nn12 [Example 71] | 4.73 |  |
| Cc1c(C(=O)N[C@H]2CCc3ccccc32)cnc2c(-c3cccc(Cl)c3)c(Cl)nn12 [Example 75] | 4.6 |  |
| CC(C)c1c(C(=O)N[C@H]2CCCc3ccccc32)cnc2c(-c3ccc(Cl)cc3)c(Cl)nn12 [Example 76] | 5.79 |  |
| O=C(N[C@H]1CCc2ccccc21)c1cnc2c(-c3ccc(Cl)cc3)c(C(F)(F)F)nn2c1 [Example 80] | 4.61 |  |
| Cc1c(C(=O)N[C@H]2CCCc3ccccc32)cnc2c(-c3cc(Cl)cc(Cl)c3)c(C(F)(F)F)nn12 [Example 82] | 5.66 |  |
| Cc1c(C(=O)N[C@H]2CCCc3ccccc32)cnc2c(-c3cccc(C(F)(F)F)c3)c(C(F)(F)F)nn12 [Example 83] | 5.03 |  |
| O=C(N[C@H]1CCc2ccccc21)c1cnc2c(-c3ccccc3Cl)c(C(F)(F)F)nn2c1 [Example 84] | 4.15 |  |
| Cc1c(C(=O)N[C@H]2CCc3ccccc32)cnc2c(-c3cccc(C(F)(F)F)c3)c(C(F)(F)F)nn12 [Example 85] | 4.77 |  |
| Cc1c(C(=O)N[C@H]2CCCc3ccccc32)cnc2c(-c3cccc(Cl)c3)c(C(F)(F)F)nn12 [Example 86] | 4.94 |  |
| O=C(N[C@H]1CCc2ccccc21)c1cnc2c(-c3cccc(C(F)(F)F)c3)c(C(F)(F)F)nn2c1 [Example 87] | 4.66 |  |
| Cc1c(C(=O)N[C@H]2CCCc3ccccc32)cnc2c(-c3ccccc3Cl)c(C(F)(F)F)nn12 [Example 90] | 4.5 |  |
| Cc1nn2c(C(C)C)c(C(=O)N[C@H]3CCOc4ccc(Cl)cc43)cnc2c1-c1ccc(Cl)cc1 [Example 106] | 5.36 |  |
| Cc1ccc2c(c1)[C@@H](NC(=O)c1cnc3c(-c4cccc(Cl)c4)c(C)nn3c1C(C)C)CCC2 [Example 109] | 5.9 |  |
| Cc1ccc2c(c1)[C@@H](NC(=O)c1cnc3c(-c4ccc(F)c(F)c4)c(C)nn3c1C(C)C)CCC2 [Example 112] | 5.55 |  |
| Cc1ccc2c(c1)[C@@H](NC(=O)c1cnc3c(-c4ccc(Cl)cc4)c(C)nn3c1C(C)C)CCC2 [Example 113] | 5.88 |  |
| Cc1nn2c(C(C)C)c(C(=O)N[C@H]3CCc4ccccc43)cnc2c1-c1ccc(Cl)c(C(=O)NC2CC2)c1 [Example 120] | 3.78 |  |
| CC(C)c1c(C(=O)N[C@H]2CCOc3ccccc32)cnc2c(-c3cnn(CC(F)(F)F)c3)c(C(F)(F)F)nn12 [Example 129] | 4.21 |  |
| CC(C)c1c(C(=O)N[C@H]2CCc3ccccc32)cnc2c(-c3ccc(F)nc3)c(C(F)(F)F)nn12 [Example 161] | 4.35 |  |
| CC(C)c1c(C(=O)N[C@H]2CCc3ccccc32)cnc2c(-c3ccc(F)cc3)c(C(F)(F)F)nn12 [Example 162] | 4.95 |  |
| CC(C)c1c(C(=O)N[C@H]2CCc3ccccc32)cnc2c(-c3cnc(F)c(F)c3)c(C(F)(F)F)nn12 [Example 163] | 4.76 |  |
| CC(C)c1c(C(=O)N[C@H]2CCc3ccccc32)cnc2c(-c3ccc(Cl)nc3)c(C(F)(F)F)nn12 [Example 164] | 4.7 |  |

| SMILES | logP (Method L0) [a] | other results |
| --- | --- | --- |
| CC(C)Sc1nn2c(C(C)C)c(C(=O)N[C@H]3CCOc4ccccc43)cnc2c1-c1cc(Cl)cc(Cl)c1 [Example 198] |  | log P: 7 |
| CC(C)Sc1nn2c(C(C)C)c(C(=O)N[C@H]3CCc4ccccc43)cnc2c1-c1cc(Cl)cc(Cl)c1 [Example 199] |  | log P: 7.34 |
| CCSc1nn2c(C(C)C)c(C(=O)N[C@H]3CCOc4ccccc43)cnc2c1-c1cc(Cl)cc(Cl)c1 [Example 200] |  | log P: 6.71 |
| CCSc1nn2c(C(C)C)c(C(=O)N[C@H]3CCc4ccccc43)cnc2c1-c1cc(Cl)cc(Cl)c1 [Example 201] |  | log P: 6.93 |
| CC(C)c1c(C(=O)N[C@H]2CCc3ccccc32)cnc2c(-c3cc(Cl)cc(Cl)c3)c(S(=O)(=O)C(C)C)nn12 [Example 214] |  | log P: 4.85 |
| Cc1nn2c(C(C)C)c(C(=O)N[C@H]3CCOc4ccccc43)cnc2c1-c1ccc2c(c1)CCC2=O [Example 250] |  | log P: 3.75 |
| Cc1nc2c(-c3cc(Cl)cc(Cl)c3)c(C)nn2c(C)c1C(=O)N[C@H]1CCOc2ccccc21 [Example 268] |  | log P: 4.76 |
| Cc1nn2c(C(F)(F)F)c(C(=O)N[C@H]3CCc4ccccc43)cnc2c1-c1c(F)cccc1F [Example 410] |  | log P [1]: 4.16 |
| CC(C)c1c(C(=O)N[C@H]2CCc3ccccc32)cnc2c(-c3cccc(Cl)c3)c(C3CC3)nn12 [Example 411] |  | log P [1]: 5.87 |
| Cc1nn2c(C(F)(F)F)c(C(=O)N[C@H]3CCc4ccccc43)cnc2c1-c1ccccc1Cl [Example 412] |  | log P [1]: 4.43 |
| CC(C)c1c(C(=O)N[C@H]2CCc3ccccc32)cnc2c(-c3ccccc3Cl)c(C3CC3)nn12 [Example 414] |  | log P [1]: 5.87 |
| CC(C)c1c(C(=O)N[C@H]2CCc3ccccc32)cnc2c(-c3cccc(C(F)(F)F)c3)c(C3CC3)nn12 [Example 415] |  | log P [1]: 5.94 |
| CC(C)c1c(C(=O)N[C@H]2CCc3ccccc32)cnc2c(-c3cccc(F)c3)c(C3CC3)nn12 [Example 416] |  | log P [1]: 5.41 |
| Cc1nn2c(C(C)C)c(C(=O)N[C@H]3CCc4ccccc43)cnc2c1-n1cccn1 [Example 426] |  | log P [1]: 3.29 |
| COc1c(C(=O)N[C@H]2CCc3ccccc32)cnc2c(-c3c(F)cccc3Cl)c(C)nn12 [Example 513] |  | log P [1]: 2.96 |
| COc1c(C(=O)N[C@H]2CCOc3ccccc32)cnc2c(-c3c(F)cccc3Cl)c(C)nn12 [Example 514] |  | log P [1]: 4.93 |
| COc1c(C(=O)N[C@H]2CCOc3ccccc32)cnc2c(-c3cc(Cl)cc(Cl)c3F)c(C)nn12 [Example 515] |  | log P [1]: 3.17 |
| COc1c(C(=O)N[C@H]2CCOc3ccccc32)cnc2c(-c3ccc(F)c(F)c3)c(C)nn12 [Example 519] |  | log P [1]: 2.88 |
| COc1c(C(=O)N[C@H]2CCOc3ccccc32)cnc2c(-c3cc(Cl)cc(Cl)c3)c(C)nn12 [Example 521] |  | log P [1]: 3.56 |
| Cc1nn2c(C3CC3)c(C(=O)N[C@H]3CCOc4ccccc43)cnc2c1-c1ccnc(N2CCOCC2)c1 [Example 526] |  | log P [1]: 1.53 |
| Cc1nn2c(C(C)C)c(C(=O)N[C@H]3CCc4ccccc43)cnc2c1-c1ccc(C#N)cc1 [Examples 301] |  | log P: 4.28 |
| Cc1nn2c(C(C)C)c(C(=O)N[C@H]3CCc4ccccc43)cnc2c1-c1cn[nH]c1 [Examples 307] |  | log P: 2.75 |
| CC(=O)Nc1ccc(-c2c(C)nn3c(C(C)C)c(C(=O)N[C@H]4CCc5ccccc54)cnc23)cc1 [Examples 327] |  | log P: 3.24 |
| Cc1nn2c(C(C)C)c(C(=O)N[C@H]3CCc4ccccc43)cnc2c1-c1ccc(NS(C)(=O)=O)cc1 [Examples 330] |  | log P: 3.38 |
